Source: patent US20230085307A1, “PYRIDAZINONE COMPOUND AND HERBICIDE” (NISSAN CHEMICAL CORPORATION, priority 2019, published 2023)

Columns and labels:
late watergrass = assay: Test Example 1: herbicidal activity, application before weed generation under submerged conditions (Table 16, symbol A); type: in vivo, late watergrass (Echinochloa oryzicola)
Method in brief: (§1)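 Submerged Wagner pots (alluvial soil, 4 cm water) sown with weed seeds and planted with 2.5-leaf rice seedlings; emulsifiable concentrate diluted in water applied to water surface on sowing day. Held in greenhouse at 25-30 °C; injury scored 0-5 by herbicidal rate after three weeks.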

Japanese bulrush = assay: Test Example 1: herbicidal activity, application before weed generation under submerged conditions (Table 16, symbol B); type: in vivo, Japanese bulrush (Schoenoplectus juncoides)
Method in brief: as §1

oval-leafed pondweed = assay: Test Example 1: herbicidal activity, application before weed generation under submerged conditions (Table 16, symbol C); type: in vivo, oval-leafed pondweed (Monochoria vaginalis)
Method in brief: as §1

barnyard grass [1] = assay: Test Example 3: herbicidal effect by foliage application, Wagner pot (Table 18, symbol H); type: in vivo, barnyard grass (Echinochloa crus-galli); conditions: 320 g/ha
Method in brief: (§2)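 Plants were sown in alluvial soil held under 0.1–0.5 cm standing water and grown 14 days in a greenhouse at 25–30 °C. An emulsifiable formulation, water-diluted to the set dose, was then sprayed onto the foliage, and effects were scored three weeks later using previously defined criteria.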

Chinese sprangletop = assay: Test Example 3: herbicidal effect by foliage application, Wagner pot (Table 18, symbol D); type: in vivo, chinese sprangletop (Leptochloa chinensis); conditions: 320 g/ha
Method in brief: as §2

rice flat sedge = assay: Test Example 3: herbicidal effect by foliage application, Wagner pot (Table 18, symbol E); type: in vivo, rice flat sedge (Cyperus iria); conditions: 320 g/ha
Method in brief: as §2

southern crabgrass [2] = assay: Test Example 4: herbicidal effect by soil treatment (Table 19, symbol F); type: in vivo, southern crabgrass (Digitaria ciliaris)
Method in brief: (§3)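 Pre-emergence style soil spray: seeds under ~1.5 cm sterilized diluvial soil received a uniform coat of emulsion diluted to the predetermined herbicide amount. Greenhouse 25–30° C; readout at week three on previously defined criteria.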

green foxtail [3] = assay: Test Example 4: herbicidal effect by soil treatment (Table 19, symbol G); type: in vivo, green foxtail (Setaria viridis)
Method in brief: as §3

barnyard grass [4] = assay: Test Example 4: herbicidal effect by soil treatment (Table 19, symbol H); type: in vivo, barnyard grass (Echinochloa crus-galli)
Method in brief: as §3

wild oat [5] = assay: Test Example 4: herbicidal effect by soil treatment (Table 19, symbol I); type: in vivo, wild oat (Avena fatua)
Method in brief: as §3

blackgrass [6] = assay: Test Example 4: herbicidal effect by soil treatment (Table 19, symbol J); type: in vivo, blackgrass (Alopecurus myosuroides)
Method in brief: as §3

Italian ryegrass [7] = assay: Test Example 4: herbicidal effect by soil treatment (Table 19, symbol K); type: in vivo, Italian ryegrass (Lolium multiflorum)
Method in brief: as §3

windgrass [8] = assay: Test Example 4: herbicidal effect by soil treatment (Table 19, symbol L); type: in vivo, windgrass (Apera spica-venti)
Method in brief: as §3

velvetleaf [9] = assay: Test Example 4: herbicidal effect by soil treatment (Table 19, symbol M); type: in vivo, velvetleaf (Abutilon theophrasti)
Method in brief: as §3

redroot pigweed [10] = assay: Test Example 4: herbicidal effect by soil treatment (Table 19, symbol N); type: in vivo, redroot pigweed (Amaranthus retroflexus)
Method in brief: as §3

lambsquarters [11] = assay: Test Example 4: herbicidal effect by soil treatment (Table 19, symbol O); type: in vivo, lambsquarters (Chenopodium album)
Method in brief: as §3

chickweed [12] = assay: Test Example 4: herbicidal effect by soil treatment (Table 19, symbol P); type: in vivo, common chickweed (Stellaria media)
Method in brief: as §3

persian speedwell [13] = assay: Test Example 4: herbicidal effect by soil treatment (Table 19, symbol R); type: in vivo, Persian speedwell (Veronica persica)
Method in brief: as §3

southern crabgrass [14] = assay: Test Example 5: herbicidal effect by foliage application, plastic box (Table 20, symbol F); type: in vivo, southern crabgrass (Digitaria ciliaris)
Method in brief: (§4)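 Plants were sown into sterilized diluvial soil under about 1.5 cm cover and kept in a greenhouse at 25° C. to 30° C. Fourteen days on, foliage received an even spray of the diluted emulsion. Herbicidal or crop effect was judged three weeks afterwards.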

green foxtail [15] = assay: Test Example 5: herbicidal effect by foliage application, plastic box (Table 20, symbol G); type: in vivo, green foxtail (Setaria viridis)
Method in brief: as §4

barnyard grass [16] = assay: Test Example 5: herbicidal effect by foliage application, plastic box (Table 20, symbol H); type: in vivo, barnyard grass (Echinochloa crus-galli)
Method in brief: as §4

wild oat [17] = assay: Test Example 5: herbicidal effect by foliage application, plastic box (Table 20, symbol I); type: in vivo, wild oat (Avena fatua)
Method in brief: as §4

blackgrass [18] = assay: Test Example 5: herbicidal effect by foliage application, plastic box (Table 20, symbol J); type: in vivo, blackgrass (Alopecurus myosuroides)
Method in brief: as §4

Italian ryegrass [19] = assay: Test Example 5: herbicidal effect by foliage application, plastic box (Table 20, symbol K); type: in vivo, Italian ryegrass (Lolium multiflorum)
Method in brief: as §4

windgrass [20] = assay: Test Example 5: herbicidal effect by foliage application, plastic box (Table 20, symbol L); type: in vivo, windgrass (Apera spica-venti)
Method in brief: as §4

velvetleaf [21] = assay: Test Example 5: herbicidal effect by foliage application, plastic box (Table 20, symbol M); type: in vivo, velvetleaf (Abutilon theophrasti)
Method in brief: as §4

redroot pigweed [22] = assay: Test Example 5: herbicidal effect by foliage application, plastic box (Table 20, symbol N); type: in vivo, redroot pigweed (Amaranthus retroflexus)
Method in brief: as §4

lambsquarters [23] = assay: Test Example 5: herbicidal effect by foliage application, plastic box (Table 20, symbol O); type: in vivo, lambsquarters (Chenopodium album)
Method in brief: as §4

chickweed [24] = assay: Test Example 5: herbicidal effect by foliage application, plastic box (Table 20, symbol P); type: in vivo, common chickweed (Stellaria media)
Method in brief: as §4

persian speedwell [25] = assay: Test Example 5: herbicidal effect by foliage application, plastic box (Table 20, symbol R); type: in vivo, Persian speedwell (Veronica persica)
Method in brief: as §4

[26] = foliage application, AAH 320 g/ha, three weeks after application
[27] = amount of applied herbicide 320 g/ha
[28] = amount of applied herbicide 320 g/ha, foliage application after 14-day growth, evaluated three weeks after application

COCOc1c(C)nn(C)c(=O)c1-c1c(-c2ccc(OCc3ccccc3)cc2)sc2ccccc12 [1-135]
Herbicidal effect on A: late watergrass (grade 0-5) (late watergrass; 320 g/ha applied herbicide): 4 (Herbicidal rate of 70% or more and less than 90%) | Herbicidal effect on B: Japanese bulrush (grade 0-5) (Japanese bulrush; 320 g/ha applied herbicide): 3 (Herbicidal rate of 40% or more and less than 70%) | Herbicidal effect on C: oval-leafed pondweed (grade 0-5) (oval-leafed pondweed; 320 g/ha applied herbicide): 3 (Herbicidal rate of 40% or more and less than 70%) | herbicidal effect on H (barnyard grass), rating 0-5 (barnyard grass [1]): 2 (Herbicidal rate of 20% or more and less than 40%) | herbicidal effect on D (Chinese sprangletop), rating 0-5 (Chinese sprangletop): 3 (Herbicidal rate of 40% or more and less than 70%) | herbicidal effect on E (rice flat sedge), rating 0-5 (rice flat sedge): 3 (Herbicidal rate of 40% or more and less than 70%) | F: southern crabgrass, herbicidal effect rating (southern crabgrass [2]; AAH 320 g/ha): 2 (Herbicidal rate of 20% or more and less than 40%) | G: green foxtail, herbicidal effect rating (green foxtail [3]; AAH 320 g/ha): 0 (Herbicidal rate of 5% or less (almost no effect)) | H: barnyard grass, herbicidal effect rating (barnyard grass [4]; AAH 320 g/ha): 0 (Herbicidal rate of 5% or less (almost no effect)) | I: wild oat, herbicidal effect rating (wild oat [5]; AAH 320 g/ha): 0 (Herbicidal rate of 5% or less (almost no effect)) | J: blackgrass, herbicidal effect rating (blackgrass [6]; AAH 320 g/ha): 0 (Herbicidal rate of 5% or less (almost no effect)) | K: Italian ryegrass, herbicidal effect rating (Italian ryegrass [7]; AAH 320 g/ha): 0 (Herbicidal rate of 5% or less (almost no effect)) | L: windgrass, herbicidal effect rating (windgrass [8]; AAH 320 g/ha): 0 (Herbicidal rate of 5% or less (almost no effect)) | M: velvetleaf, herbicidal effect rating (velvetleaf [9]; AAH 320 g/ha): 0 (Herbicidal rate of 5% or less (almost no effect)) | N: redroot pigweed, herbicidal effect rating (redroot pigweed [10]; AAH 320 g/ha): 0 (Herbicidal rate of 5% or less (almost no effect)) | O: lambsquarters, herbicidal effect rating (lambsquarters [11]; AAH 320 g/ha): 0 (Herbicidal rate of 5% or less (almost no effect)) | P: chickweed, herbicidal effect rating (chickweed [12]; AAH 320 g/ha): 0 (Herbicidal rate of 5% or less (almost no effect)) | R: persian speedwell, herbicidal effect rating (persian speedwell [13]; AAH 320 g/ha): 3 (Herbicidal rate of 40% or more and less than 70%) | F: southern crabgrass, herbicidal effect (southern crabgrass [14]; [26]): 0 (Herbicidal rate of 5% or less (almost no effect)) | G: green foxtail, herbicidal effect (green foxtail [15]; [26]): 4 (Herbicidal rate of 70% or more and less than 90%) | H: barnyard grass, herbicidal effect (barnyard grass [16]; [26]): 1 (Herbicidal rate of 5% or more and less than 20%) | I: wild oat, herbicidal effect (wild oat [17]; [26]): 0 (Herbicidal rate of 5% or less (almost no effect)) | J: blackgrass, herbicidal effect (blackgrass [18]; [26]): 0 (Herbicidal rate of 5% or less (almost no effect)) | K: Italian ryegrass, herbicidal effect (Italian ryegrass [19]; [26]): 0 (Herbicidal rate of 5% or less (almost no effect)) | L: windgrass, herbicidal effect (windgrass [20]; [26]): 0 (Herbicidal rate of 5% or less (almost no effect)) | M: velvetleaf, herbicidal effect (velvetleaf [21]; [26]): 2 (Herbicidal rate of 20% or more and less than 40%) | N: redroot pigweed, herbicidal effect (redroot pigweed [22]; [26]): 5 (Herbicidal rate of 90% or more (almost completely withered)) | O: lambsquarters, herbicidal effect (lambsquarters [23]; [26]): 5 (Herbicidal rate of 90% or more (almost completely withered)) | P: chickweed, herbicidal effect (chickweed [24]; [26]): 5 (Herbicidal rate of 90% or more (almost completely withered)) | R: persian speedwell, herbicidal effect (persian speedwell [25]; [26]): 4 (Herbicidal rate of 70% or more and less than 90%)

Cc1nn(C)c(=O)c(-c2c(-c3ccc(OC(C)C)cc3)sc3cc(F)c(F)cc23)c1O [5-019]
Herbicidal effect, A: late watergrass (late watergrass; [27]): 3 (Herbicidal rate of 40% or more and less than 70%) | Herbicidal effect, B: Japanese bulrush (Japanese bulrush; [27]): 0 (Herbicidal rate of 5% or less (almost no effect)) | Herbicidal effect, C: oval-leafed pondweed (oval-leafed pondweed; [27]): 0 (Herbicidal rate of 5% or less (almost no effect)) | herbicidal effect on barnyard grass (H) (barnyard grass [1]): 4 (Herbicidal rate of 70% or more and less than 90%) | herbicidal effect on Chinese sprangletop (D) (Chinese sprangletop): 0 (Herbicidal rate of 5% or less (almost no effect)) | herbicidal effect on rice flat sedge (E) (rice flat sedge): 1 (Herbicidal rate of 5% or more and less than 20%) | F: southern crabgrass, herbicidal effect grade (southern crabgrass [2]; [27]): 0 (Herbicidal rate of 5% or less (almost no effect)) | G: green foxtail, herbicidal effect grade (green foxtail [3]; [27]): 3 (Herbicidal rate of 40% or more and less than 70%) | H: barnyard grass, herbicidal effect grade (barnyard grass [4]; [27]): 0 (Herbicidal rate of 5% or less (almost no effect)) | I: wild oat, herbicidal effect grade (wild oat [5]; [27]): 0 (Herbicidal rate of 5% or less (almost no effect)) | J: blackgrass, herbicidal effect grade (blackgrass [6]; [27]): 0 (Herbicidal rate of 5% or less (almost no effect)) | K: Italian ryegrass, herbicidal effect grade (Italian ryegrass [7]; [27]): 0 (Herbicidal rate of 5% or less (almost no effect)) | L: windgrass, herbicidal effect grade (windgrass [8]; [27]): 0 (Herbicidal rate of 5% or less (almost no effect)) | M: velvetleaf, herbicidal effect grade (velvetleaf [9]; [27]): 3 (Herbicidal rate of 40% or more and less than 70%) | N: redroot pigweed, herbicidal effect grade (redroot pigweed [10]; [27]): 4 (Herbicidal rate of 70% or more and less than 90%) | O: lambsquarters, herbicidal effect grade (lambsquarters [11]; [27]): 2 (Herbicidal rate of 20% or more and less than 40%) | P: chickweed, herbicidal effect grade (chickweed [12]; [27]): 1 (Herbicidal rate of 5% or more and less than 20%) | R: persian speedwell, herbicidal effect grade (persian speedwell [13]; [27]): 4 (Herbicidal rate of 70% or more and less than 90%) | Herbicidal effect by foliage application, F: southern crabgrass (southern crabgrass [14]; [28]): 4 (Herbicidal rate of 70% or more and less than 90%) | Herbicidal effect by foliage application, G: green foxtail (green foxtail [15]; [28]): 4 (Herbicidal rate of 70% or more and less than 90%) | Herbicidal effect by foliage application, H: barnyard grass (barnyard grass [16]; [28]): 4 (Herbicidal rate of 70% or more and less than 90%) | Herbicidal effect by foliage application, I: wild oat (wild oat [17]; [28]): 0 (Herbicidal rate of 5% or less (almost no effect)) | Herbicidal effect by foliage application, J: blackgrass (blackgrass [18]; [28]): 0 (Herbicidal rate of 5% or less (almost no effect)) | Herbicidal effect by foliage application, K: Italian ryegrass (Italian ryegrass [19]; [28]): 3 (Herbicidal rate of 40% or more and less than 70%) | Herbicidal effect by foliage application, L: windgrass (windgrass [20]; [28]): 0 (Herbicidal rate of 5% or less (almost no effect)) | Herbicidal effect by foliage application, M: velvetleaf (velvetleaf [21]; [28]): 4 (Herbicidal rate of 70% or more and less than 90%) | Herbicidal effect by foliage application, N: redroot pigweed (redroot pigweed [22]; [28]): 5 (Herbicidal rate of 90% or more (almost completely withered)) | Herbicidal effect by foliage application, O: lambsquarters (lambsquarters [23]; [28]): 3 (Herbicidal rate of 40% or more and less than 70%) | Herbicidal effect by foliage application, P: chickweed (chickweed [24]; [28]): 5 (Herbicidal rate of 90% or more (almost completely withered)) | Herbicidal effect by foliage application, R: persian speedwell (persian speedwell [25]; [28]): 5 (Herbicidal rate of 90% or more (almost completely withered))
